Test [1] deals with Chinese hamster V79 cells. The note with it: cited from earlier work.
The test system of test [2] is rat glial cell gap junction. Put plainly: Gap junction dye coupling assay (Lucifer yellow dye transfer; microinjection or scrape loading). In kind it is cell-based. On the procedure: (§1) Rat glial cells (Suter et al., 1987) obtained from Dr. Trosko's laboratory were cultured in standard plastic tissue cultureware in Richter's Improved Minimal Essential Medium (Irvine Scientific, Santa Ana, CA), supplemented with 10% fetal calf serum and 50 µg/ml gentamicin sulfate, and incubated in a humidified atmosphere of 95% air/5% CO2 at 37°C. The cells were passaged by trypsinization and used at passages 4-8. BHK (baby hamster kidney) cells that were stably transfected with a β1 connexin cDNA (Kumar et al., 1995) were cultured in DMEM medium supplemented with 5% fetal calf serum and 50 µg/ml gentamicin sulfate, and incubated in a humidified atmosphere of 95% air/5% CO2 at 37° C. In order to induce β1 connexin expression in the BHK cells, 100 µM zinc acetate was added to culture medium for 8-18 hours when the cell culture was about 90% confluent.
(§2) Gap junctional communication in glial cell and BHK/β1 cell cultures was assayed by microinjection of 5% Lucifer yellow CH dye in 0.1 M LiCl solution, and quantitated by determining the number of directly adjacent, neighboring cells that received dye (dye-coupling). Micropipettes were loaded with the dye solution by backfilling. Cells were visualized using a Nikon Diaphot inverted phase contrast/ epifluorescent microscope, and impaled with dye-filled micropipettes using an Eppendorf microinjector (model 5246). Five minutes after dye-injection, the transfer of dye to directly adjacent cells was determined using epifluorescent illumination. For each treatment condition, ten cells were microinjected in each of three dishes, the total number of dye-coupled neighboring cells was calculated and compared to determine the % dye-coupling. For scrape loading measurements, Lucifer yellow CH (0.05% dye in PBS) was loaded intracellularly by cutting or scraping cells in the monolayer with a sharp knife. The dye solution was left in the dish for 90 seconds, then the solution was discarded, and the dish subsequently washed with PBS. The cells were examined for dye transfer with an inverted epifluorescence microscope, and the degree of communication was assessed by determining the extent of Lucifer yellow transfer into contiguous cells.

The next test deals with astrocyte. The note with it: cited from earlier work.
Test [3] has as its system rat glial cells. Put plainly: Gap junction electrical coupling assay (double whole cell patch recording). In kind it is cell-based. On the procedure:
Junctional conductance was measured using double whole cell patch recording performed on pairs of rat glial cells as described (Miller et al., (1992) J Mem. Biol. 128, 91-102) with a pipette solution of (in […]): Kaspartate 160, EGTA 10, CaCl2 2, HEPES 10 (pH 7.2), ATP 4. The external solution contained (in mM): NaCl 160, KCl 4.5, CaCl2 2, MgCl2 1, HEPES 10, pH 7.4. Both cells were held at -40 mV and pulses to -20 mV were alternately applied to each cell. Holding currents were subtracted in the records shown. Cells that were examined were generally in contact with other cells. The electrical conductance was calculated as the junctional current divided by 20 mV. All dye-coupling and conductance studies were performed at room temperature.

Another test has as its system BHK/β1 cells. Put plainly: Gap junction dye transfer between β1 connexin-transfected BHK cells. In kind it is cell-based, baby hamster. On the procedure: as §1, §2
In a further test the test system is astrocyte calcium waves. The note with it: mechanical stimulation or local glutamate application; cited from earlier work.
Test [4] has as its system rat glial cells. The experiment in a line: Calcium wave propagation (Fluo-3, mechanical stimulation). The test is classed as cell-based. On the procedure: Rat glial cells were loaded with 5 µM Fluo-3/AM (Calbiochem) in Hank's balanced salt solution containing 25 mM HEPES buffer (HBSS/HEPES) for 1 hour, at which point the loading buffer was exchanged for new HBSS/HEPES buffer. The cell cultures were then left at room temperature for at least 30 minutes. Mechanical stimulation of a single cell was performed as follows: a glass micropipette (tip diameter of approximately 0.5 µm) was micro-manipulated downward on to a single cell causing a transient deformation of the cell membrane. The calcium image was then examined with an inverted fluorescence microscope, and photographed with a digital fluorescence microscope (excitation = 506 nm, emmision = 526 nm). The degree of calcium wave propagation was quantitated by counting at different time points the number of transmitting cells in one linear direction away from the stimulated cell. Junctional dye transfer rates were simultaneously examined by microinjection of Lucifer yellow CH in the same dishes; the methods for dye transfer assay was described in assay procedures, gap junction dye coupling assays. For calcium wave and dye transfer studies, the drug was preincubated with the glial cells for 10 minutes, and the drug was left in the experimental solution throughout the examination. All measurements were performed at room temperature.

The subject of a further test is striatal astrocytes. To be noted: cited from earlier work.
Test [5] can be described thus: Induction of physiological sleep. The test is classed as in vivo. The note with it: rats.
The subject of the next test is α1 connexin. The experiment in a line: Immunoblotting of α1 connexin phosphorylation isoforms. In kind it is cell-based, rat. On the procedure: Plasma membrane fractions containing gap junctions were obtained after hypotonic alkali extraction of the glial cells. The extracted protein was dissolved in 2% SDS and the total protein was determined using the Bio-Rad DC Protein Assay kit (Bio-Rad Corp.). 10 µg of protein was electrophoresed by 10% SDS-PAGE, and subsequently blotted electrophoretically on to Immobilon-P membranes (Millipore Corp.). Gap junction protein was detected using anti-α1 connexin polyclonal rabbit antibodies, and the HRP/Chemiluminescence detection kit (Amersham Corp.) following the manufacturer's instructions.
(Immunoblotting shows a protein as a band on a membrane.)

For test [6] the following is noted: animals, ip or iv injection; cited from earlier work.
The subject of test [7] is mammalian myocardial cells. Put plainly: Gap junctional communication between myocardial cells (preliminary analysis). The test is classed as cell-based. To be noted: unpublished observations.
Test [8] concerns rat liver epithelial cells. The note with it: cited from earlier work.
The mark [9] stands for this setting: result in words, concentration not stated at the place.

“Also recorded” adds a separate entry of the source. Like-named read-outs stand apart in the source and are kept apart here.

`CCCCCCCC/C=C\CCCCCCCC(=O)OCC(CO)OC(C)=O` (racemic) [1-oleoyl-2-acetylglycerol, reference compound]: the gap junction inhibition entry in test [1] was “gap junction inhibition”. Also, the “inhibition of gap junction-mediated dye transfer” value in [2] (setting [9]) is listed as “not inhibitors”.

Consider `CCCCC/C=C\C/C=C\C/C=C\C/C=C\CCCC(=O)NCCO` [anandamide, reference compound], for which the “gap junction-mediated dye transfer” value in the test with astrocyte was “inhibit gap junction-mediated dye transfer”. In addition, the electrical coupling entry with rat glial cells [3] (concentration not given) was “selectively inhibiting gap junction communication”. Also, in the test with BHK/β1 cells (concentration not given), the “effect on dye transfer” value is “inhibitory effects”. Further, the “propagation of astrocyte calcium waves” value in the test on astrocyte calcium waves is “block the propagation of astrocyte calcium waves”. Besides, the “inhibition of gap junction-mediated dye transfer” value in [2] (50 µM) was “effective inhibitors”; in test [2] (setting [9]), “selectively inhibiting gap junction communication”. Moreover, in test [2] (comparison in words), the “potency of gap junction inhibition relative to oleamide” value is listed as “blocked dye transfer at doses comparable to oleamide”. Moreover, the calcium wave transmission result in the test on rat glial cells [4] (concentration not given) is listed as “without affecting calcium wave transmission”.

Turning to `CCCCC/C=C\C/C=C\C/C=C\C/C=C\CCCC(=O)O` [arachidonic acid], in the test with striatal astrocytes, the gap junction inhibition entry is given as “inhibit the gap junction”.

Regarding `CCCCCCCC/C=C\CCCCCCCCCCCC(N)=O` [erucamide, Erucamide], the “induction of physiological sleep” value in test [5] is on record as “does not induce physiological sleep”. In test [2] (setting [9]), the “inhibition of gap junction-mediated dye transfer” value is reported as “not an inhibitor”.

One may read the inhibition as the share of the control response that was lost under treatment. Take `CCCCCCCC/C=C\CCCCCCCC(N)=O` [oleamide, cis-9-octadecenamide]: the “α1 connexin phosphorylation profile (P2 isoform)” value with α1 connexin (50 µM, 4 hours) was “dramatic loss of the P2 isoform”. In addition, the “reversibility of the effect on the α1 phosphorylation profile” value with α1 connexin (removal of oleamide, normal culture media for 4 hours) is given as “proved reversible”. Further, in the test on rat glial cells [3] (50 µM), the junctional electrical coupling result is “completely blocked; also recorded: completely uncoupled”. In addition, the “residual junctional conductance (upper limit)” value in the test with rat glial cells [3] (50 µM) is “less than 50 pS”. Besides, the mean junctional conductance in the test on rat glial cells [3] (50 µM, n=5) amounted to 0.5 ± 0.7 nS. Further, the “effect on dye transfer” value in the test on BHK/β1 cells (50 µM for 10 min) is “no dye transfer”; in the test with BHK/β1 cells (50 µM for 10 min, listed as Oleamide), “rapidly and completely block dye transfer”; in the test on BHK/β1 cells (50 µM, 4 hours of treatment), “completely blocked dye transfer”. For the same compound, in the test with BHK/β1 cells (50 µM, 4 hours of treatment, zinc induced sample), the dye transfer came to 0.31 ± 0.24%. Moreover, the “induction of physiological sleep” value in [6] is “induce physiological sleep”. In test [7], the “sensitivity of gap junctional communication to the inhibitory action” value was “not as sensitive”. Besides, the “inhibition of glial cell dye transfer” value in test [2] (20 µM, preincubation 4 h) is on record as “significantly inhibited”. Also, the “block of intercellular dye transfer, microinjected Lucifer yellow” value in test [2] (50 µM for 10 min) was “completely blocked intercellular dye transfer”. Besides, the “inhibition of dye transfer” value in test [2] (50 µM, 4 h prior to injection of Lucifer yellow (dose-response)) is recorded as “complete inhibition”. Further, the “recovery of dye transfer after removal of oleamide” value in [2] (50 µM, then fresh media without oleamide) is “Complete recovery of dye transfer to control levels was observed within one hour”. Further, the inhibition at 20 µM in [2] (Rattus norvegicus, Glial cell, read-out: inhibition of dye transfer) was around 50%. In addition, the “restoration of dye-coupling under continual exposure” value in test [2] (continually exposed for up to 24 h) is reported as “no restoration of dye-coupling”. Besides, the “time for junctional communication to recover to control levels after removal of oleamide” value in test [2] (culture media changed) was at most 1 h. In test [2] (setting [9]), the “inhibition of gap junction-mediated dye transfer” value was “most potent inhibitor”. The “dye transfer after scrape loading with Lucifer yellow” value in test [2] (scrape loaded cells, pretreatment with oleamide) is listed as “fully abrogated; also recorded: no dye spread to adjacent cells”. The “mechanically-stimulated or glutamate-induced calcium wave propagation” value in the test on rat glial cells [4] is recorded as “no inhibitory effect”. Further, the “mechanically-induced calcium wave propagation” value in the test with rat glial cells [4] (50 µM, preincubation from 10 minutes to 4 hours) is reported as “no impact; also recorded: indistinguishable manner from control cell populations”.

`CC/C=C\C/C=C\C/C=C\CCCCCCCC(=O)O` [α-linolenic acid]: the gap junction inhibition result in [8] was “inhibit the gap junction”.
